pIC50: −log10 of the molar value.
Target: T1, α-amylase (Sus scrofa, UniProt P00690)
T1 construct: gene AMY2; from porcine pancreas, type VI-B
T1 sequence (P00690 16-511): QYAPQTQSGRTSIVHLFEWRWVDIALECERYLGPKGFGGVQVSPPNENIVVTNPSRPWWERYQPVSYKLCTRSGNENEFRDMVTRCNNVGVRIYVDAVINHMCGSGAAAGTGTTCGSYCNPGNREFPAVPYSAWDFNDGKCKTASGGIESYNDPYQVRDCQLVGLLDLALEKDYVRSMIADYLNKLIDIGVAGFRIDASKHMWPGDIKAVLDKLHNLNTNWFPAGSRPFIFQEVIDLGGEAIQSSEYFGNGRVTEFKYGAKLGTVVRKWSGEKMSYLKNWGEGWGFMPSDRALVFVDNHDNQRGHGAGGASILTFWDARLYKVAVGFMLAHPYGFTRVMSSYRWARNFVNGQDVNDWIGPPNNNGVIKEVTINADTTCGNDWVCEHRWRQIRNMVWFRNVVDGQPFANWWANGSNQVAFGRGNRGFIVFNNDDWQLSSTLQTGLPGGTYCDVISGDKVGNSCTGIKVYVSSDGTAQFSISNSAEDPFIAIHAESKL
Experiment: electrochemical glucose sensor (PBA-GO-CuO electrode) assay of starch hydrolysis; checked by iodine colorimetric assay
Format: biochemical

## O=C(O)c1cc(O)c2c(c1)C(=O)c1cccc(O[C@@H]3O[C@H](CO)[C@@H](O)[C@H](O)[C@H]3O)c1C2=O [Rhein-8-b-D-glucopyranoside]
  pIC50: 4.41
